target: T1, N370S glucocerebrosidase from human spleen homogenate (Homo sapiens, UniProt P04062, N409S); assay: qHTS fluorogenic enzyme assay for activators of N370S glucocerebrosidase (4-methylumbelliferyl-beta-D-glucopyranoside substrate); format: biochemical; details: pH 5.0, 37° C. 40 min
T1 construct: N370S glucocerebrosidase from human spleen homogenate as the enzyme preparation; from tissue; host or cells: human spleen homogenate
T1 sequence (P04062 40-536 N409S): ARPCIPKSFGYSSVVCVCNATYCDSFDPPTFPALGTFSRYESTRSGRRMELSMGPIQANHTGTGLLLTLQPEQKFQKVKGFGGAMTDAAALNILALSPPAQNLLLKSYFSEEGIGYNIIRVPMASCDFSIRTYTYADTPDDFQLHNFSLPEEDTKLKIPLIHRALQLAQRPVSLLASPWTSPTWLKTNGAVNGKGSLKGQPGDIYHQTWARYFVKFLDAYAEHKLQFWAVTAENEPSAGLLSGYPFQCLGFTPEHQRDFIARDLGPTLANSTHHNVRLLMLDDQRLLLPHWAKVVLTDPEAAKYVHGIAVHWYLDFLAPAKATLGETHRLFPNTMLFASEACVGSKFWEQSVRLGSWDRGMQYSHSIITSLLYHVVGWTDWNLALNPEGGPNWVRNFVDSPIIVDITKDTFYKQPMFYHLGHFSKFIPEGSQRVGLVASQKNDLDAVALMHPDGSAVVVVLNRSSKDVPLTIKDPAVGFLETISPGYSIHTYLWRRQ
Text: qHTS Assay for Inhibitors and Activators of N370S glucocerebrosidase as a Potential Chaperone Treatment of Gaucher Disease: Primary Screen Confirmation
This is a fluorogenic enzyme assay with 4-methylumbelliferyl-beta-D-glucopyranoside as the substrate and N370S glucocerebrosidase from human spleen homogenate as the enzyme preparation. Upon the hydrolysis of this fluorogenic substrate, the resulting product, […] which can be detected by a standard fluorescence plate reader. Data were normalized to the controls for basal activity (without enzyme) and 100% activity (with enzyme). The AC50 values were determined from concentration-response data modeled with the standard Hill equation.
Human spleen homogenate is prepared as follows by homogenizing spleen with assay buffer containing 50 mM citric acid (titrated with potassium phosphate to pH 5.0), 100 mM potassium chloride, 10 mM sodium chloride, 1 mM magnesium chloride, 0.01% Tween-20. The protein concentration of the human spleen homogenate is approximated 1.35 ug/ul.
The assay is performed in 1536 well plates according to the following protocol. (1) 2 ul spleen homogenate ([…] final) is added to each well. (2) 23 nL test compound in DMSO solution is added to each well. The final concentration of compound in the test well is 0.5 nM to 58 uM. (3) 2 ul of substrate (1 mM final) are added to each well. (4) Incubate assay plates at 37° C. for 40 min. (5) Add 2 ul stop solution (1M NaOH and 1M Glycine mixture, pH 10) to each well. (6) Detect the assay plate in a ViewLux plate reader (PerkinElmer) using 365 nm excitation with emission at 440 nm.

Row | Structure (SMILES) | AC50 [µM]
1 | Cc1cc(C)n2ncc(C(=O)NCc3ccccc3)c2n1 [NCGC00187976-01, N-benzyl-5,7-dimethylpyrazolo[1,5-a]pyrimidine-3-carboxamide] | 51.7
2 | Cc1cc(C)n2ncc(C(=O)NCC(C)C)c2n1 [NCGC00187978-01, N-isobutyl-5,7-dimethylpyrazolo[,15-a]pyrimidine-3-carboxamide] | 32.6
3 | Cc1cc(C)n2ncc(C(=O)NC3CCC(C(C)(C)C)CC3)c2n1 (stereo not shown) [NCGC00188754-01, N-(4-tert-butylcyclohexyl)-5,7-dimethylpyrazolo[1,5-a]pyrimidine-3-carboxamide] | 25.9
4 | Cc1cc(C)n2ncc(C(=O)NC3CCC(C(C)(C)C)CC3)c2n1 (stereo not shown) [NCGC00188755-01, N-(4-tert-butylcyclohexyl)-5,7-dimethylpyrazolo[1,5-a]pyrimidine-3-carboxamide] | 4.11
5 | Cc1cc(C)n2ncc(C(=O)Nc3ccc(Br)cc3)c2n1 [NCGC00188756-01, N-(4-bromophenyl)-5,7-dimethylpyrazolo[1,5-a]pyrimidine-3-carboxamide] | 2.06
6 | Cc1cc(C)n2ncc(C(=O)Nc3ccc4ccccc4n3)c2n1 [NCGC00188763-01, 5,7-dimethyl-N-(quinolin-2-yl)pyrazolo[1,5-a]pyrimidine-3-carboxamide] | 20.6
7 | Cc1cc(C)n2ncc(C(=O)Nc3ccc(C(C)(C)C)cc3)c2n1 [NCGC00188764-01, N-(4-tert-butylphenyl)-5,7-dimethylpyrazolo[1,5-a]pyrimidine-3-carboxamide] | 2.31
8 | COc1ccc(NC(=O)c2cnn3c(C)cc(C)nc23)cc1 [NCGC00188768-01, N-(4-methoxyphenyl)-5,7-dimethylpyrazolo[1,5-a]pyrimidine-3-carboxamide] | 8.19
9 | Cc1cc(C)n2ncc(C(=O)Nc3ccc(C#N)cc3)c2n1 [NCGC00188769-01, N-(4-cyanophenyl)-5,7-dimethylpyrazolo[1,5-a]pyrimidine-3-carboxamide] | 20.6
10 | Cc1cccc(NC(=O)c2cnn3c(C)cc(C)nc23)c1 [NCGC00188771-01, 5,7-dimethyl-N-m-tolylpyrazolo[1,5-a]pyrimidine-3-carboxamide] | 6.51
11 | Cc1ccc(NC(=O)c2cnn3c(C)cc(C)nc23)cc1 [NCGC00188772-01, 5,7-dimethyl-N-p-tolylpyrazolo[1,5-a]pyrimidine-3-carboxamide] | 1.63
12 | COc1ccc(NC(=O)c2cnn3c(C)cc(C)nc23)c(C)c1 [NCGC00188774-01, N-(4-methoxy-2-methylphenyl)-5,7-dimethylpyrazolo[1,5-a]pyrimidine-3-carboxamide] | 51.7
13 | Cc1ccc(NC(=O)c2cnn3c(C)cc(C)nc23)c(F)c1 [NCGC00188779-01, N-(2-fluoro-4-methylphenyl)-5,7-dimethylpyrazolo[1,5-a]pyrimidine-3-carboxamide] | 11.6
14 | Cc1cc(C)n2ncc(C(=O)Nc3ccc(C)c(Cl)c3)c2n1 [NCGC00188782-01, N-(3-chloro-4-methylphenyl)-5,7-dimethylpyrazolo[1,5-a]pyrimidine-3-carboxamide] | 1.83
15 | Cc1cc(C)n2ncc(C(=O)Nc3ccc(C)c(C)c3)c2n1 [NCGC00188783-01, N-(3,4-dimethylphenyl)-5,7-dimethylpyrazolo[1,5-a]pyrimidine-3-carboxamide] | 1.46
16 | CC(=O)c1ccc(NC(=O)c2cnn3c(C)cc(C)nc23)cc1 [NCGC00188784-01, N-(4-acetylphenyl)-5,7-dimethylpyraozlo[1,5-a]pyrimidine-3-carboxamide] | 163
17 | Cc1cc(C)n2ncc(C(=O)Nc3cccc(C(F)(F)F)c3)c2n1 [NCGC00188786-01, 5,7-dimethyl-N-(3-(trifluoromethyl)phenyl)pyrazolo[1,5-a]pyrimidine-3-carboxamide] | 41.1
18 | Cc1cc(C)n2ncc(C(=O)Nc3ccc(C(F)(F)F)cc3)c2n1 [NCGC00188787-01, 5,7-dimethyl-N-(4-(trifluoromethyl)phenyl)pyrazolo[1,5-a]pyrimidine-3-carboxamide] | 1.46
19 | Cc1cc(-c2ccccc2)nc2c(C(=O)NC3CCC(C(C)(C)C)CC3)cnn12 (stereo not shown) [NCGC00229707-01, N-(4-tert-butylcyclohexyl)-7-methyl-5-phenylpyrazolo[1,5-a]pyrimidine-3-carboxamide] | 5.8
20 | Cc1cc(-c2ccccc2)nc2c(C(=O)NC3CCC(C(C)(C)C)CC3)cnn12 (stereo not shown) [NCGC00229708-01, N-(4-tert-butylcyclohexyl)-7-methyl-5-phenylpyrazolo[1,5-a]pyrimidine-3-carboxamide] | 2.06
21 | Cc1cc(-c2ccccc2)n2ncc(C(=O)NC3CCC(C(C)(C)C)CC3)c2n1 (stereo not shown) [NCGC0229711-01, N-(4-tert-butylcyclohexyl)-5-methyl-7-phenylpyrazolo[1,5-a]pyrimidine-3-carboxamide] | 32.6
22 | Cc1cc(C)n2ncc(C(=O)Nc3ccccc3Sc3ccccc3)c2n1 [NCGC00229712-01, 5,7-dimethyl-N-(2-(phenylthio)phenyl)pyrazolo[1,5-a]pyrimidine-3-carboxamide] | 18.3
23 | Cc1cc(C)n2ncc(C(=O)Nc3ccc(Cl)c(Cl)c3)c2n1 [NCGC00229713-01, N-(3,4-dichlorophenyl)-5,7-dimethylpyrazolo[1,5-a]pyrimidine-3-carboxamide] | 3.66

Now from value to compound:

Row | AC50 [µM] | Structure (SMILES)
24 | 10.3 | Cc1cc(C)n2ncc(C(=O)NC3CCCCC3)c2n1 [NCGC00187971-01, N-cyclohexyl-5,7-dimethylpyrazolo[1,5-a]pyrimidine-3-carboxamide]
25 | 8.19 | Cc1cc(C)n2ncc(C(=O)Nc3ccccc3)c2n1 [NCGC00187975-01, 5,7-dimethyl-N-phenylpyrazolo[1,5-a]pyrimidine-3-carboxamide]
26 | 51.7 | Cc1cc(C)n2ncc(C(=O)NCc3ccco3)c2n1 [NCGC00188759-01, N-(furan-2-ylmethyl)-5,7-dimethylpyrazolo[1,5-a]pyrimidine-3-carboxamide]
27 | 16.3 | Cc1cc(C)n2ncc(C(=O)Nc3cnc4ccccc4c3)c2n1 [NCGC00188762-01, 5,7-dimethyl-N-(quinolin-3-yl)pyrazolo[1,5-a]pyrimidine-3-carboxamide]
28 | 5.8 | Cc1cc(C)n2ncc(C(=O)Nc3ccc(F)cc3)c2n1 [NCGC00188766-01, N-(4-fluorophenyl)-5,7-dimethylpyrazolo[1,5-a]pyrimidine-3-carboxamide]
29 | 16.3 | Cc1cc(C)n2ncc(C(=O)Nc3ccccc3C)c2n1 [NCGC00188770-01, 5,7-dimethyl-N-o-tolylpyrazolo[1,5-a]pyrimidine-3-carboxamide]
30 | 10.3 | Cc1cc(C)n2ncc(C(=O)Nc3ccc4c(c3)OCCO4)c2n1 [NCGC00188773-01, N-(2,3-dihydrobenzo[b][1,4]dioxin-6-yl)-5,7-dimethylpyrazolo[1,5-a]pyrimidine-3-carboxamide]
31 | 1.46 | COc1ccc(NC(=O)c2cnn3c(C)cc(C)nc23)cc1F [NCGC00188776-01, N-(3-fluoro-4-methoxyphenyl)-5,7-dimethylpyrazolo[,15-a]pyrimidine-3-carboxamide]
32 | 13 | Cc1ccc(NC(=O)c2cnn3c(C)cc(C)nc23)c(C)c1 [NCGC00188778-01, N-(2,4-dimethylphenyl)-5,7-dimethylpyrazolo[1,5-a]pyrimidine-3-carboxamide]
33 | 2.06 | COc1ccc(NC(=O)c2cnn3c(C)cc(C)nc23)cc1Cl [NCGC00188780-01, N-(3-chloro-4-methoxyphenyl)-5,7-dimethylpyrazolo[1,5-a]pyrimidine-3-carboxamide]
34 | 25.9 | COc1ccc(NC(=O)c2cnn3c(C)cc(C)nc23)c(OC)c1 [NCGC00188781-01, N-(2,4-dimethoxyphenyl)-5,7-dimethylpyrazolo[1,5-a]pyrimidine-3-carboxamide]
35 | 32.6 | CC(=O)c1cccc(NC(=O)c2cnn3c(C)cc(C)nc23)c1 [NCGC00188785-01, N-(3-acetylphenyl)-5,7-dimethylpyrazolo[1,5-a]pyrimidine-3-carboxamide]
36 | 13 | CCc1ccc(NC(=O)c2cnn3c(C)cc(-c4ccccc4)nc23)cc1 [NCGC00229714-01, N-(4-ethylphenyl)-7-methyl-5-phenylpyrazolo[1,5-a]pyrimidine-3-carboxamide]
37 | 6.51 | Cc1cc(-c2ccccc2)nc2c(C(=O)Nc3ccc(Cl)c(Cl)c3)cnn12 [NCGC00229715-01, N-(3,4-dichlorophenyl)-7-methyl-5-phenylpyrazolo[1,5-a]pyrimidine-3-carboxamide]

— US10925874B2, “Substituted pyrazolopyrimidines as glucocerebrosidase activators” (The United States of America, as Represented by the …, priority 2010, dated 2021)
